Holding throughout (type): cell-based
One test concerns SIVmac MA239. The experiment in a line: Antiviral assay in infected Molt-4 cells, virus measured by RT activity. The note with it: 120 h, RT activity of supernatant at 5 days postinfection. The procedure:
(§1) (1) Molt-4 cells (2×10^6 cells) were infected with HIV-1 NL432 (4×10^6 cpm), HIV-2 Rod (8×10^6 cpm), SIVmac MA239 (8×10^6 cpm) and SIVagm SA212 (8×10^6 cpm), and incubated for 1 hr at room temperature.
(§2) {circle over (3)} Preparation of SIVmac virus: SW480 cells were cultured in DMEM medium supplemented with 10% fetal bovine serum using 25 cm^2 flask. SIVmac MA239 infectious molecular DNA (40 μg), pMA239, transfected to the cells by calcium phosphate coprecipitation method, and the supernatant (2 mL) at 2-3 days post-transfection was infected to CEMX174 cells (1×10^6 cells). The cells were cultured in 10 mL RPMI medium supplemented with 10% fetal bovine serum in CO2 incubator at 37° C. After apparent giant cells were observed, the cells were removed by centrifugation and then the supernatant was filtrated by 0.45 μm filter, measured RT activity, and stored at −80° C. as SIVmac stock virus.
(§3) {circle over (2)} The cells were washed twice to remove the viruses and suspended in 10 mL RPMI medium supplemented with 10% fetal bovine serum. The infected cells (100 μL) were plated in 96-well microtiter plates containing with the serial 5 fold dilution of compounds (100 μL) and cultured in CO2 incubator at 37° C.
(§4) {circle over (3)} The supernatant at 5 days postinfection was harvested and measured the amount of the virus by RT activity.
(§5) Preparation of the solution for RT assay:
(§6) A reaction mixture (90 μL) were contained 50 mM Tris-HCl, pH 8.3, 150 mM KCl, 10 mM MgCl2, 0.1% Nonidet P-40, 10 mM DTT (dithiothreitol), 5 μg/mL poly(rA), 5 μg/mL (dT)12-18 and 1 μCi [^3H] dTTP at final concentration after mixture of a sample (10 μL).
(§7) The procedure of RT assay:
(§8) 1. 10 μL of sample was plated to 3 wells of 96-well microtiter plate (triplicate assay).
(§9) 2. Reaction mixture (90 μL) chilled at 4° C. was added to each well, mixed and then incubate at 37° C. for 3 hrs.
(§10) 3. After incubation, the plate was chilled on ice, and passed through a DEAE-Filtermat using cell harvester. The filter was washed with 4.5% Na2HPO4 (20 see) and H2O (10 sec).
(§11) 4. The filter was dried at 95° C. for 15 min.
(§12) 5. 10 mL of scintilator was added and sealed.
(§13) 6. Radioactivity was measured by LKB Beta Plate scintillation spectroscopy.
(§14) 7. RT activity (cpm/mL) was calculated from average of three wells.

Another test concerns SIVagm SA212. The description is as above. The note with it: 120 h, RT activity of supernatant at 5 days postinfection. The procedure: as §1
{circle over (4)} Preparation of SIVagm virus: SW480 cells were cultured in DMEM medium supplemented with 10% fetal bovine serum using 25 cm^2 flask. SIVagm SA212 infectious molecular DNA (40 μg), pSA212, transfected to the cells by calcium phosphate coprecipitation methods, and the supernatant (2 mL) at 2-3 days post-transfection was infected to M8166 cells (1×10^6 cells). The cells were cultured in 10 mL RPMI medium supplemented with 10% fetal bovine serum in CO2 incubator at 37° C. Every 3 days, the cells were separated from the supernatant by centrifugation and continued culture with new culture medium. The each supernatant was filtrated by 0.45 μm filter, measured RT activity, and stored at −80° C. as SIVagm stock virus.
as §3, §4, §5, §6, §7, §8, §9, §10, §11, §12, §13, §14

In a further test the test system is HIV-1 NL432. The description is as above. The note with it: read-out: EC50 HIV-1 NL432. The procedure:
as §1
as §2, with “(1)}” for “(3)}”, “HIV-1” for “SIVmac”, “HIV-1” for “SIVmac MA239”, “pNL432,” for “pMA239,”, “M8166” for “CEMX174”
as §3, §4, §5, §6, §7, §8, §9, §10, §11, §12, §13, §14

Another test concerns HIV (HTLV-IIIB strain). The experiment in a line: MTT assay, MT-4 cells infected with HIV. To be noted: Human immunodeficiency virus 1, MT4, 120 h, 5 days, inhibits 50% of cell damage caused by virus, read-out: EC50. The procedure:
The inhibitory effects of each anti-human immunodeficiency virus active substance against human immunodeficiency virus have been determined by MTT assay described below.
(1) Human T cell strain Molt-4 clone 8 persistently infected HIV (HTLV-IIIB strain) was cultivated in RPMI-1640 medium supplemented with 10% fatal bovine serum, and supernatant was filtered, measured RT activity, and stored at −80° C. On the other hand, each human anti-immunodeficiency virus active substance was diluted to fixed concentration in culture medium, they were plated to 96-well microtiter plate. Subsequently, 100 μL (3.5×10^4 cells) of MT-4 cell suspension was plated to 96-well microtiter plate, and then above mentioned supernatant containing HIV, which was diluted by culture medium, was added 50 μL (60 pfu (plaque forming unit.)) to 96-well microtiter plate.
(2) After cultivation at 37° C. for 5 days in CO2 incubator, into all well was added 30 μL per well 3-(4,5-[…])-2,5-diphenyltetrazolium bromide (MTT) 5 mg/mL) and PBS, and then incubated for 1 h.
In this time, alive cells reduced MTT and formazan was precipitated, therefore, 150 μL of cell supernatants were removed from all wells, and then 150 μL of lysate (10% triton X-100 and 0.4% (v/v) HCl-containing isopropanol) was added, and formazan was eluated on a plate shaker.

The next test has as its system HIV-2 Rod. The experiment in a line: Antiviral assay in infected Molt-4 cells, virus measured by RT activity. The note with it: read-out: EC50 HIV-2 ROD. On the procedure:
as §1
{circle over (2)} Preparation of HIV-2 virus: HIV-2 Rod was infected to M8166 cells (1×10^6 cells). The cells were cultured in 10 mL RPMI medium supplemented with 10% fetal bovine serum in CO2 incubator at 37° C. After apparent giant cells were observed, the cells were removed by centrifugation and then the supernatant was filtrated by 0.45 μm filter, measured RT activity, and stored at −80° C. as HIV-2 stock virus.
as §3, §4, §5, §6, §7, §8, §9, §10, §11, §12, §13, §14

In test [1] the test system is feline immunodeficiency virus (FIV TM-2 strain). The experiment in a line: FIV antiviral assay in MYA-1 feline T cells, RT activity. The note with it: T-cell, 240 h, FIV TM-2, MYA-1 cells, RT activity at 10 days postinfection. On the procedure: (1) The serial 5 fold diluted samples were plated in 24 well microtiter plate. Feline T-cell lines (MYA-1 cells: 4×10^5 cells/well) and feline immunodeficiency virus (FIV TM-2 strain: 3000 cpm/well) were added to each well. The cells were cultured with 1.5 mL RPMI medium supplemented with 10% fetal bovine serum, 2 μg/mL polybrene, 100 unit/mL human recombinant IL-2 and 50 μM 2-mercaptoethanol in CO2 incubator at 37° C.
{circle over (1)} Preparation of FIV TM-2 virus: FIV TM-2 was infected to MYA-1 cells (1×10^6 cells). The cells were cultured in 10 mL RPMI medium supplemented with 10% fetal bovine serum, 2 μg/mL polybrene, 100 unit/ml human recombinant IL-2 and 50 μM 2-mercaptoethanol in CO2 incubator at 37° C. Every 1-2 days, the cells were separated from the supernatant by centrifugation and continued culture with new culture medium. Each of the supernatant was filtrated by 0.45 μm filter, measured RT activity, and stored at as −80° C. as FIV stock virus.
(2) Every 1-2 days, the supernatants were measured the amount of the virus by RT activity (as same as experimental example 2).

[2] abbreviates: Human immunodeficiency virus 1, 120 h, Molt-4 cells, RT activity of supernatant at 5 days postinfection.
Where [3] appears, read: Human immunodeficiency virus 2, 120 h, Molt-4 cells, RT activity of supernatant at 5 days postinfection.

In brackets after ≈: the same amount, converted by molar mass. Like-named read-outs stand apart in the source and are kept apart here.

The record followed here is patent publication US20030171406A1, “Medicinal compositions containing propenone derivatives” (priority 2000, published 2003).

With `Nc1ccn(C2CSC(CO)O2)c(=O)n1` (single isomer, unassigned; (-)) [Lamivudine, (−)-2′,3+-dideoxy-3′-thiacytidine], the concentration for a half-maximal effect (EC50) with SIVmac MA239 was 9.1 ng/mL (≈ 0.0397 µM); with SIVagm SA212, 22 ng/mL (≈ 0.096 µM); in the test on HIV-1 NL432 (setting [2]) it was 8.4 ng/mL (≈ 0.0366 µM); with HIV (HTLV-IIIB strain), 38 ng/mL; in the test with HIV-2 Rod (setting [3]), 22 ng/mL (≈ 0.096 µM).

Consider `O=C(C=C(O)c1nc[nH]n1)c1ccc(Cc2ccc(F)cc2)o1` [Compound I-16, 1-[5-(4-Fluorobenzyl)furan-2-yl]-3-hydroxy-3-(1H-1,2,4-triazol-3-yl)propenone], for which the 50% effective concentration (EC50) in the test with SIVmac MA239 is 57 ng/mL (≈ 0.182 µM); in the test with SIVagm SA212 it was 44 ng/mL (≈ 0.14 µM); in test [1], 300 ng/mL (≈ 0.958 µM); with HIV-1 NL432 (setting [2]) it was 57 ng/mL (≈ 0.182 µM); in the test on HIV-2 Rod (setting [3]), 35 ng/mL (≈ 0.112 µM).

`Cc1cn([C@H]2C=C[C@@H](CO)O2)c(=O)[nH]c1=O` [Stavudine]: the EC50 with SIVmac MA239 is 3.4 ng/mL (≈ 0.0152 µM); with SIVagm SA212, 4.5 ng/mL (≈ 0.0201 µM); in the test on HIV-1 NL432 (Human immunodeficiency virus 1, MOLT-4, 120 h), 6.1 ng/mL (≈ 0.0272 µM); in the test on HIV (HTLV-IIIB strain), 50 ng/mL; with HIV-2 Rod (Human immunodeficiency virus 2, MOLT-4, 120 h), 4.1 ng/mL (≈ 0.0183 µM).

For `Cc1cn(C2CC(N=[N+]=[N-])C(CO)O2)c(=O)[nH]c1=O` (stereo not drawn) [Zidovudine, 3′-azido-3′-deoxycytimidine], the EC50 in the test with SIVmac MA239 amounted to 0.35 ng/mL (≈ 0.00131 µM); in the test on SIVagm SA212, 0.36 ng/mL (≈ 0.00135 µM); in test [1], 48 ng/mL (≈ 0.18 µM); in the test with HIV-1 NL432 (setting [2]), 0.51 ng/mL (≈ 0.00191 µM); in the test with HIV (HTLV-IIIB strain), 1.8 ng/mL; in the test with HIV-2 Rod (setting [3]) it was 0.28 ng/mL (≈ 0.00105 µM).
